Measured values as given in patent US20110183911A1, “METHOD FOR IMPROVING NEUROTRANSMISSION FAILURE USING A NOVEL AGENT” (JURIDICAL FOUNDATION THE CHEMO-SERO-THERAPEUTIC RESEARCH …, priority 2002, published 2011).
Read-outs that look alike come from different tables or passages of the source.

Legend:
cell culture [1] = experiment: Toxicity when added to cell culture
cultured primary neurons = experiment: Activation of primary neurons by NO (SNAP): mitochondrial dehydrogenase activity, Cell Counting kit-8; type: cell-based; conditions: mouse primary neurons, 15 hours, fragment 0.26 μM as selenium (FIG. 3)
Source text: In order to study the effect of Selenoprotein P on the neurotic activity of NO as synaptic neurotransmitter, cultured primary neurons were subject to the action of an NO generator, S-nitroso-N-acetyl-DL-penicillamine (SNAP, manufactured by DOJINDO LABORATORIES), in the presence of Selenoprotein P to determine as to whether a respiratory capacity of neuronal mitochondria is altered in the presence of Selenoprotein P. For determination of a respiratory capacity of mitochondria, a kit was used that readily measured the dehydrogenase activity in the mitochondrial inner membrane (Cell Counting kit-8, manufactured by DOJINDO LABORATORIES).
Fetus was removed from C57BL/6 mouse of 14-day pregnancy (purchased from Charles River Japan, Inc.). The cerebral cortex from the fetus was treated and dispersed with 0.25% trypsinized EDAT and then cultured in Neurobasal Medium (Gibco BRL.) supplemented with B27 supplement (Gibco ERL.) in 5% CO2 incubator at 37° C. for culture of primary neurons. […] After developing reaction, each 100 μL of the culture supernatant was transferred to a 96-well microtiter plate and then absorption was measured at a wave-length of 450 nm with a microtiter plate reader with a reference wave-length of 650 nm.

[2] = Cell death-inhibitory activity of purified fractions; type: cell-based; conditions: fractions purified from plasma (Preparation 1)
acetylcholine receptors = experiment: Pilocarpine-induced convulsion in mice (function of acetylcholine receptor); type: in vivo; conditions: ICR male mice
Experimental: In order to study the effect of Selenoprotein P on cholinergic neurons, to mice was administered pilocarpine that agonistically acted on acetylcholine receptors present on junctions (synaptic terminal) between neurons and between neurons and muscle to thereby induce convulsion. Pilocarpine, having a parasympathetic nerve-stimulating activity, will induce clonic convulsion in the limbs leading to systemic convulsion when administered to mice.
Twelve ICR male mice (weighing 30 to 43 g; purchased from CLEA Japan, Inc.) of nine weeks old were divided into two groups (6 animals/group) and tested. One hour before administration of pilocarpine, Selenoprotein P prepared at a concentration of 2.5 mg/mL with saline was administered to mice at 0.5 mg of Selenoprotein P per animal (200 μL) as a test group. For a control group, an equivalent amount of saline was administered intraperitoneally. Pilocarpine (pilocarpine hydrochloride, Wako Pure Chemical Industries, Ltd.) was prepared at 100 mg/mL with saline and administered to mice intraperitoneally at 270 to 320 mg/kg. Immediately after administration, mice were photographed with a digital video for record of experiment. Observation was made for 60 minutes after administration of pilocarpine. Time required for developing systemic convulsion and survival of the animals were taken for criteria of assessment. […]

cell culture [3] = system: cell culture
NG108-15 cells = experiment: Activity to accelerate synaptic formation: differentiation of NG108-15 cells, anti-Rab3a immunostaining; type: cell-based, rat; conditions: Selenoprotein P 4.36 μg/mL
Experimental: In order to study the effect of Selenoprotein P on synaptic formation, differentiation to neurons was examined using NG108-15 cells (hybridoma of rat neuroblastoma and rat glioma: ATCC NO. HB-12317) which has widely been used for study of synaptic formation and a receptor. NK108-15 cells were seeded to DME supplemented with 10% fetal calf serum and HAT (hypoxanthine, aminopterin and thymidine) in 35 mm polyornithine-coated dish and incubated at 37° C., 10% CO2. After 1 to 2 days, the culture medium was replaced with DMEM (serum free medium) supplemented with 1% fetal calf serum and HT (hypoxanthine and thymidine) and 0.1 mM dibutyl cyclic AMP (abcAMP) was added to induce differentiation while Selenoprotein P at 4.36 μg/mL was added to the medium followed by culture for 3 days. After culture, the dish attached with a sheet of cells was rinsed twice with phosphate buffered saline (hereinafter referred to as PBS) to wash the culture. Cellular proteins were then fixed with paraformaldehyde adjusted to 4% with PBS. After fixation at room temperature for 30 minutes, the dish was rinsed twice with PBS to remove a fixing solution. […]
The nerve cell bodies had also a number of short neurites. […] A proportion of synapses specifically dyed with the anti-Rab3a antibody was then calculated with Mac SCOPE (manufactured by Mitani Corporation), a software for image analysis for Mackintosh, to measure immunopositive spots. […] Therefore, those spots with R value alone could be extracted with the analysis software and measured. In addition, the number of varicosity with no immunological reaction was measured manually and then a proportion (%) of the number of immunopositive varicosity among a total number of varicosity in the photographed picture was calculated.

| Compound | Toxicity (cell culture [1]) | Mitochondrial respiratory capacity of the neurons in the presence of NO generator SNAP (cultured primary neurons; SNAP 50 μM, Selenoprotein P or sodium selenite 1 μM) | Activity of dehydrogenase of the mitochondrial inner membrane (mitochondrial respiratory capacity), without SNAP (cultured primary neurons; no SNAP, Selenoprotein P 1 μM) | Cell death-inhibitory activity per proteins [2] | Time for developing systemic convulsion compared to control group (acetylcholine receptors; 0.5 mg Selenoprotein P per animal 1 hour before pilocarpine) | Mortality after challenge with pilocarpine compared to control group (FIG. 2) (acetylcholine receptors; 0.5 mg Selenoprotein P per animal, observation 60 minutes) | Toxicity (cell culture [3]) | Morphology of differentiated cells (neurites, varicosity) (NG108-15 cells; 3 days) | Rab3a-dyed particles on neurites (FIG. 1) (NG108-15 cells; 3 days, anti-Rab3a monoclonal antibody) | Proportion of Rab3a-immunopositive cells ± SD (NG108-15 cells; differentiation with dibutyl cyclic AMP, culture for 3 days, immunopositive varicosity among total varicosity) [%] |
| --- | --- | --- | --- | --- | --- | --- | --- | --- | --- | --- |
| N[C@@H](C[Se][Se]C[C@H](N)C(=O)O)C(=O)O [selenocystine] | considerably high toxicity | – | – | – | – | – | – | – | – | – |
| Selenoprotein P: selenocysteine-containing plasma protein (SEQ ID NO: 1), full-length 64 kDa, purified from human plasma (Preparation 2) | – | significantly increased | tended to show an increased activity | much lower than that of the fragment thereof | significantly shortened | apparently decreased mortality | no such a high toxicity could be observed | complexity in development of neurites as well as much particulate varicosity | a large number of Rab3a-dyed knotty particles on neurites | 66.0 ± 2.75 |
